Structures can show the parent of a compound that is named as a salt.
Target: T1, Recombinant human HSP90α (Homo sapiens, UniProt P07900)
T1 construct: host or cells: E. coli
Assay: radioligand filter binding test, competition with [3H]17AAG for HSP90
Conditions: [3H]17AAG 0.08 μM, HSP90 1.5 μg/assay, 22° C., 30 min, pH 7.0
Source text: The binding of geldanamycin or 17-allylamino-17-demethoxygeldanamycin (17AAG) to HSP90 and competitive inhibition thereof can be utilised in order to determine the inhibitory activity of the compounds according to the invention (Carreras et al. 2003, Chiosis et al. 2002).
In the specific case, a radioligand filter binding test is used. The radioligand used here is tritium-labelled 17-allylaminogeldanamycin, [3H]17AAG. This filter binding test allows a targeted search for inhibitors which interfere with the ATP binding site.
Recombinant human HSP90α(E. coli expressed, 95% purity); [3H]17AAG (17-allylaminogeldanamycin, [allylamino-2,3-^3H. Specific activity: 1.11×10^12 Bq/mmol (Moravek, MT-1717); HEPES filter buffer (50 mM HEPES, pH 7.0, 5 mM MgCl2, BSA 0.01%) Multiscreen FB (1 μm) filter plate (Millipore, MAFBNOB 50).
The 96-well microtitre filter plates are firstly irrigated and coated with 0.1% of polyethylenimine.
The test is carried out under the following conditions: • Reaction temperature 22° C. • Reaction time: 30 min., shaking at 800 rpm • Test volume: 50 μl • Final concentrations: • 50 mM HEPES HCl, pH 7.0, 5 mM MgCl2, 0.01% (w/v) BSA • HSP90:1.5 μg/assay • [3H]17AAG: 0.08 μM.
At the end of the reaction, the supernatant in the filter plate is removed by suction with the aid of a vacuum manifold (Multiscreen Separation System, Millipore), and the filter is washed twice.
The filter plates are then measured in a beta counter (Microbeta, Wallac) with scintillator (Microscint 20, Packard).
“% of control” is determined from the “counts per minutes” values and the IC-50 value of a compound is calculated therefrom.

IC50 [nM]	SMILES
950	COC(=O)c1cccc(COc2cc(-c3nc(N)nc4ccc(Cl)cc34)ccc2OC)c1 [Compound A108, 2-amino-6-chloro-4-[3-(3-methoxycarbonylbenzyloxy)-4-methoxyphenyl]quinazoline]
800	COC(=O)c1ccc(COc2cc(-c3nc(N)nc4ccc(Cl)cc34)ccc2OC)cc1 [Compound A109, 2-amino-6-chloro-4-[3-(4-methoxycarbonylbenzyloxy)-4-methoxyphenyl]quinazoline]
580	COc1ccc(-c2nc(N)nc3ccc(Cl)cc23)cc1OCCCC(=O)O [Compound A111, 2-amino-6-chloro-4-[3-(3-carboxypropoxy)-4-methoxyphenyl]quinazoline sodium salt]
470	COc1ccc(-c2nc(N)nc3ccc(Cl)cc23)cc1OCc1cccc(C(=O)O)c1 [Compound A112, 2-amino-6-chloro-4-[3-(3-carboxybenzyloxy)-4-methoxyphenyl]quinazoline sodium salt]
370	COc1ccc(-c2nc(N)nc3ccc(Cl)cc23)cc1OCc1ccc(C(=O)O)cc1 [Compound A113, 2-amino-6-chloro-4-[3-(4-carboxybenzyloxy)-4-methoxyphenyl]quinazoline sodium salt]
550	COc1ccc(-c2nc(N)nc3ccc(Cl)cc23)cc1OC [Compound A134, 2-amino-6-chloro-4-(3,4-dimethoxyphenyl)quinazoline]
540	COc1ccc(-c2nc(N)nc3ccc(Cl)cc23)cc1OCc1ccc(-c2nnn[nH]2)cc1 [Compound A138, 2-amino-6-chloro-4-{3-[4-(1H-tetrazol-5-yl)benzyloxy]-4-methoxyphenyl}quinazoline]

Source: US7947696B2, “2-amino-4-phenylquinazoline derivatives and the use thereof as HSP90 modulators” (Merck Patent GmbH, priority 2005, dated 2011)
